US6274715A, “Tricyclic erythromycin derivatives” (priority 1997, dated 2001)
Converted amounts (≈) assume the structure as drawn.

Tests used:
Assay type in all cases: cell-based
[1] = system: STAPHYLOCOCCUS AUREUS A-5278; test: In vitro antibacterial activity, MIC, BHI agar dilution; conditions: S. aureus A-5278, unit assumed
[2] = system: STAPHYLOCOCCUS AUREUS NCTC10649M; test: as above; conditions: S. aureus NCTC10649M, unit assumed
[3] = system: PSEUDOMONAS AERUGINOSA K799/WT; test: as above; conditions: P. aeruginosa K799/WT, unit assumed
[4] = system: ENTEROBACTER AEROGENES ATCC 13048; test: as above; conditions: E. aerogenes ATCC 13048, unit assumed
[5] = system: PSEUDOMONAS AERUGINOSA K799/61; test: as above; conditions: P. aeruginosa K799/61, unit assumed
[6] = system: ESCHERICHIA COLI KNK 437; conditions: E. coli KNK 437; BHI agar; unit assumed
[7] = system: STAPHYLOCOCCUS EPIDERMIDIS 3519; conditions: S. epidermidis 3519; BHI agar; unit assumed
[8] = system: STREPTOCOCCUS PYOGENES PIU 2548; test: In vitro antibacterial activity, MIC, BHI agar dilution; conditions: S. pyogenes PIU 2548, unit assumed
[9] = system: KLEBSIELLA PNEUMONIAE ATCC 8045; test: as above; conditions: K. pneumoniae ATCC 8045, unit assumed
[10] = system: STREPTOCOCCUS BOVIS A-5169; test: as above; conditions: S. bovis A-5169, unit assumed
[11] = system: STR[…] 508; test: as above; conditions: S. agalactiae CMX 508, unit assumed
How it was run: (§1)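 MIC was read visually as the lowest drug concentration showing no growth, a slight haze or sparsely isolated colonies relative to a compound-free BHI plate. Plates held serial aqueous dilutions in BHI agar, were spot-inoculated with 1:100 (or 1:10) culture dilutions and incubated 20 to 24 hours at 35-37° C.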

[12] = system: EN[…] ATCC 8043; test: as above; conditions: E. faecium ATCC 8043, unit assumed
How it was run: as §1

[13] = system: M[…] ATCC 9341; test: as above; conditions: M. luteus ATCC 9341, unit assumed
How it was run: as §1

[14] = system: M[…] ATCC 4698; test: as above; conditions: M. luteus ATCC 4698, unit assumed
How it was run: as §1

[15] = system: PROVIDENCIA STUARTII CMX 640; conditions: P. stuartii CMX 640; BHI agar; unit assumed
[16] = system: STAPHYLOCOCCUS AUREUS 1775; test: In vitro antibacterial activity, MIC, BHI agar dilution; conditions: S. aureus 1775, unit assumed
[17] = system: H. Influenza Dill AMP R; test: In vitro antibacterial activity against H. Influenza Dill AMP R, MIC; conditions: separate assay, unit assumed
Description: Representative compounds of the present invention were assayed in vitro for antibacterial activity as follows: Twelve petri dishes containing successive aqueous dilutions of the test compound mixed with 10 mL of sterilized Brain Heart Infusion (BHI) agar (Difco 0418-01-5) were prepared. Each plate was inoculated with 1:100 (or 1:10 for slow-growing strains, such as Micrococcus and Streptococcus) dilutions of up to 32 different microorganisms, using a Steers replicator block. The inoculated plates were incubated at 35-37° C. for 20 to 24 hours. In addition, a control plate, using BHI agar containing no test compound, was prepared and incubated at the beginning and end of each test.
After incubation, each plate was visually inspected. The minimum inhibitory concentration (MIC) was defmed as the lowest concentration of drug yielding no growth, a slight haze, or sparsely isolated colonies on the inoculum spot as compared to the growth control.
In a separate assay representative compounds of the invention were assayed in vitro for antibacterial activity against the H. Influenza Dill AMP R strain, according to the protocol described above.

[18] = system: STAPHYLOCOCCUS AUREUS CMX 642A; test: In vitro antibacterial activity, MIC, BHI agar dilution; conditions: S. aureus CMX 642A, unit assumed
[19] = system: STAPHYLOCOCCUS AUREUS ATCC 6538P; test: as above; conditions: S. aureus ATCC 6538P, 35-37° C., 20 to 24 hours, unit assumed
[20] = system: ESCHERICHIA COLI JUHL; conditions: E. coli JUHL; BHI agar; unit assumed
[21] = system: STREPTOCOCCUS PYOGENES EES61; test: In vitro antibacterial activity, MIC, BHI agar dilution; conditions: S. pyogenes EES61, unit assumed
[22] = system: ESCHERICHIA COLI H560; test: as above; conditions: E. coli H560, unit assumed
[23] = system: PSEUDOMONAS AERUGINOSA DPHD-2862; test: as above; conditions: P. aeruginosa DPHD-2862, unit assumed
[24] = system: MYCOBACTERIUM SMEGMATIS ATCC 114; test: as above; conditions: M. smegmatis ATCC 114, unit assumed
[25] = system: PSEUDOMONAS AERUGINOSA BMH10; test: as above; conditions: P. aeruginosa BMH10, unit assumed
[26] = system: ESCHERICHIA COLI SS; test: as above; conditions: E. coli SS, unit assumed
[27] = system: PSEUDOMONAS CEPACIA 296I; test: as above; conditions: P. cepacia 296I, unit assumed
[28] = system: STREPTOCOCCUS PYOGENES 930; test: as above; conditions: S. pyogenes 930, unit assumed
[29] = system: STAPHYLOCOCCUS AUREUS CMX 553; test: as above; conditions: S. aureus CMX 553, unit assumed
[30] = system: ESCHERICHIA COLI DC-2; test: as above; conditions: E. coli DC-2, unit assumed
[31] = system: PSEUDOMONAS AERUGINOSA DPHD-5263; test: as above; conditions: P. aeruginosa DPHD-5263, unit assumed
[32] = system: STAPHYLOCOCCUS AUREUS A5177; test: as above; conditions: S. aureus A5177, unit assumed
[33] = system: CANDIDA ALBICANS CCH 442; test: as above; conditions: C. albicans CCH 442, unit assumed
[34] = system: PSEUDOMONAS AERUGINOSA 5007; test: as above; conditions: P. aeruginosa 5007, unit assumed

## CC[C@H]1OC(=O)[C@H](C)C(=O)[C@H](C)[C@@H](O[C@@H]2O[C@H](C)C[C@H](N(C)C)[C@H]2O)[C@](C)(OC)C[C@@H](C)C2=NC3CN(CCc4cccc([N+](=O)[O-])c4)CC3N3C(=O)O[C@@]1(C)[C@H]3[C@H]2C (stereo partly drawn) [Example 120]
[1]
  MIC: > 100 µg/mL
[2]
  MIC: 0.2 µg/mL (≈ 0.242 µM)
[3]
  MIC: > 100 µg/mL
[4]
  MIC: > 100 µg/mL
[5]
  MIC: 0.78 µg/mL (≈ 0.942 µM)
[6]
  MIC: > 100 µg/mL
[7]
  MIC: 0.39 µg/mL (≈ 0.471 µM)
[8]
  MIC: 0.39 µg/mL (≈ 0.471 µM)
[9]
  MIC: > 100 µg/mL
[10]
  MIC: 0.01 µg/mL (≈ 0.0121 µM)
[11]
  MIC: 0.01 µg/mL (≈ 0.0121 µM)
[12]
  MIC: 0.05 µg/mL (≈ 0.0604 µM)
[13]
  MIC: 0.02 µg/mL (≈ 0.0242 µM)
[14]
  MIC: 0.2 µg/mL (≈ 0.242 µM)
[15]
  MIC: > 100 µg/mL
[16]
  MIC: > 100 µg/mL
[17]
  MIC: 4 µg/mL (≈ 4.83 µM)
[18]
  MIC: 0.2 µg/mL (≈ 0.242 µM)
[19]
  MIC: 0.2 µg/mL (≈ 0.242 µM)
[20]
  MIC: 50 µg/mL (≈ 60.4 µM)
[21]
  MIC: 0.01 µg/mL (≈ 0.0121 µM)
[22]
  MIC: 50 µg/mL (≈ 60.4 µM)
[23]
  MIC: > 100 µg/mL
[24]
  MIC: 0.78 µg/mL (≈ 0.942 µM)
[25]
  MIC: > 100 µg/mL
[26]
  MIC: 0.39 µg/mL (≈ 0.471 µM)
[27]
  MIC: 100 µg/mL (≈ 121 µM)
[28]
  MIC: > 100 µg/mL
[29]
  MIC: 0.2 µg/mL (≈ 0.242 µM)
[30]
  MIC: 50 µg/mL (≈ 60.4 µM)
[31]
  MIC: > 100 µg/mL
[32]
  MIC: 0.2 µg/mL (≈ 0.242 µM)
[33]
  MIC: > 100 µg/mL
[34]
  MIC: > 100 µg/mL

## CC[C@H]1OC(=O)[C@H](C)C(=O)[C@H](C)[C@@H](O[C@@H]2O[C@H](C)C[C@H](N(C)C)[C@H]2O)[C@](C)(OC)C[C@@H](C)C2=NC3CN(CCN(C)C)CC3N3C(=O)O[C@@]1(C)[C@H]3[C@H]2C (stereo partly drawn) [Example 129]
[1]
  MIC: > 100 µg/mL
[2]
  MIC: 1.56 µg/mL (≈ 2.08 µM)
[3]
  MIC: > 100 µg/mL
[4]
  MIC: 100 µg/mL (≈ 133 µM)
[5]
  MIC: 1.56 µg/mL (≈ 2.08 µM)
[6]
  MIC: > 100 µg/mL
[7]
  MIC: 1.56 µg/mL (≈ 2.08 µM)
[8]
  MIC: 3.1 µg/mL (≈ 4.13 µM)
[9]
  MIC: 100 µg/mL (≈ 133 µM)
[10]
  MIC: 0.05 µg/mL (≈ 0.0667 µM)
[11]
  MIC: 0.05 µg/mL (≈ 0.0667 µM)
[12]
  MIC: 0.39 µg/mL (≈ 0.52 µM)
[13]
  MIC: 0.2 µg/mL (≈ 0.267 µM)
[14]
  MIC: 1.56 µg/mL (≈ 2.08 µM)
[15]
  MIC: > 100 µg/mL
[16]
  MIC: > 100 µg/mL
[17]
  MIC: 64 µg/mL (≈ 85.3 µM)
[18]
  MIC: 1.56 µg/mL (≈ 2.08 µM)
[19]
  MIC: 1.56 µg/mL (≈ 2.08 µM)
[20]
  MIC: 100 µg/mL (≈ 133 µM)
[21]
  MIC: 0.02 µg/mL (≈ 0.0267 µM)
[22]
  MIC: 50 µg/mL (≈ 66.7 µM)
[23]
  MIC: > 100 µg/mL
[24]
  MIC: 50 µg/mL (≈ 66.7 µM)
[25]
  MIC: > 100 µg/mL
[26]
  MIC: 0.78 µg/mL (≈ 1.04 µM)
[27]
  MIC: > 100 µg/mL
[28]
  MIC: > 100 µg/mL
[29]
  MIC: 1.56 µg/mL (≈ 2.08 µM)
[30]
  MIC: 50 µg/mL (≈ 66.7 µM)
[31]
  MIC: > 100 µg/mL
[32]
  MIC: 1.56 µg/mL (≈ 2.08 µM)
[33]
  MIC: > 100 µg/mL
[34]
  MIC: > 100 µg/mL

## CC[C@H]1OC(=O)[C@H](C)C(=O)[C@H](C)[C@@H](O[C@@H]2O[C@H](C)C[C@H](N(C)C)[C@H]2O)[C@](C)(OC)C[C@@H](C)C2=NCC(COC(=O)c3ccccc3)N3C(=O)O[C@@]1(C)[C@H]3[C@H]2C (stereo partly drawn) [Example 139]
[1]
  MIC: > 100 µg/mL
[2]
  MIC: 0.1 µg/mL (≈ 0.13 µM)
[3]
  MIC: 100 µg/mL (≈ 130 µM)
[4]
  MIC: 100 µg/mL (≈ 130 µM)
[5]
  MIC: 0.39 µg/mL (≈ 0.505 µM)
[6]
  MIC: 50 µg/mL (≈ 64.8 µM)
[7]
  MIC: 0.1 µg/mL (≈ 0.13 µM)
[8]
  MIC: 0.39 µg/mL (≈ 0.505 µM)
[9]
  MIC: 100 µg/mL (≈ 130 µM)
[10]
  MIC: ≤ 0.005 µg/mL
[11]
  MIC: 0.02 µg/mL (≈ 0.0259 µM)
[12]
  MIC: 0.02 µg/mL (≈ 0.0259 µM)
[13]
  MIC: 0.05 µg/mL (≈ 0.0648 µM)
[14]
  MIC: 0.2 µg/mL (≈ 0.259 µM)
[15]
  MIC: > 100 µg/mL
[16]
  MIC: > 100 µg/mL
[17]
  MIC: 2 µg/mL (≈ 2.59 µM)
[18]
  MIC: 0.1 µg/mL (≈ 0.13 µM)
[19]
  MIC: 0.1 µg/mL (≈ 0.13 µM)
[20]
  MIC: 25 µg/mL (≈ 32.4 µM)
[21]
  MIC: 0.01 µg/mL (≈ 0.013 µM)
[22]
  MIC: 25 µg/mL (≈ 32.4 µM)
[23]
  MIC: 100 µg/mL (≈ 130 µM)
[24]
  MIC: 0.78 µg/mL (≈ 1.01 µM)
[25]
  MIC: > 100 µg/mL
[26]
  MIC: 0.39 µg/mL (≈ 0.505 µM)
[27]
  MIC: 25 µg/mL (≈ 32.4 µM)
[28]
  MIC: 25 µg/mL (≈ 32.4 µM)
[29]
  MIC: 0.1 µg/mL (≈ 0.13 µM)
[30]
  MIC: 25 µg/mL (≈ 32.4 µM)
[31]
  MIC: > 100 µg/mL
[32]
  MIC: 0.1 µg/mL (≈ 0.13 µM)
[33]
  MIC: > 100 µg/mL
[34]
  MIC: > 100 µg/mL
